# Test results published in patent publication US20050164929A1, “Methods of preventing and treating inflammatory bowel disease” (LUPINE LOGIC, INC., priority 2000, published 2005).
# Legend:
# [1] = system: mesenchymal and epithelial cells; assay: Proliferation summary for variants; assay type: cell-based; settings: in vitro
# Method: (§1) Experiments were performed to evaluate the proliferative response of representative cell types to CG53135, e.g., a full-length tagged variant (CG53135-01), a deletion variant (CG53135-02), and a full-length codon-optimized untagged variant (CG53135-05).
# (§2) CG53135-02 (batch 1 and 13) was also used in these experiments. Protein was expressed in E. coli, BLR (DE3) (Novagen), transformed with the deletion variant CG53135-02 inserted into a pET24a vector (Novagen). A research cell bank (RCB) was produced and cell paste containing CG53135-02 was produced by fermentation of cells originating from the RCB. Cell membranes were disrupted by high-pressure homogenization, and lysate was clarified by centrifugation. CG53135-02 was purified by ion exchange chromatography. The final protein fraction was dialyzed against the formulation buffer (100 mM citrate, 1 mM ethylenediaminetetraacetic acid (EDTA), and 1 M L-arginine).
# (§3) CG53135-05, DEV10, which were also used in these experiments, was prepared by Cambrex Biosciences (Hopkinton, Mass.) according to Process 1 as described in Section 6.18.1, infra.
# (§4) BrdU Incorporation: proliferative activity was measured by treatment of serum-starved cultured cells with a given agent and measurement of BrdU incorporation during DNA synthesis. Cells were cultured in respective manufacturer recommended basal growth medium supplemented with 10% fetal bovine serum or 10% calf serum as per manufacturer recommendations. Cells were grown in 96-well plates to confluence at 37° C. in 10% CO2/air (to subconfluence at 5% CO2 for dedifferentiated chondrocytes and NHOst). Cells were then starved in respective basal growth medium for 24-72 hours. CG53135 protein purified from E. coli or pCEP4/Sec or pCEP4/Sec-FGF 20× enriched conditioned medium was added (10 μL/100 μL of culture) for 18 hours. BrdU (10 μM final concentration) was then added and incubated with the cells for 5 hours. BrdU incorporation was assayed according to the manufacturer's specifications (Roche Molecular Biochemicals, Indianapolis, Ind.).
# (§5) The above described experiments were also performed using CG53135-02 and CG53135-05 protein products, and the results are summarized in the Conclusion section below.
# endothelial cells = assay: Proliferation summary for variants; assay type: cell-based; settings: in vitro
# Method: as §1, §2, §3, §4, §5
# [2] = system: DSS-induced ulcerative colitis in female Swiss Webster mice; assay: Chronic 2 week DSS-induced ulcerative colitis (N-404); assay type: in vivo, mouse
# Method: Colitis was induced in female Swiss Webster mice by exposure to 3% DSS in the drinking water (ad libitum) on study Days 1-5 and maintained by exposure to 1% DSS in the drinking water (ad libitum) on study Days 6-15. Mice were randomly assigned to 4 groups of 15 animals (Table X). Mice were exposed to 3% DSS in drinking water on test Days 1 through 5 and 1% DSS on test Days 6-15, with concurrent intraperitoneal (IP) treatments of vehicle or CG53135-05 at 0.33, 1.67 and 3.33 mg/kg (UV) Days 6-14 after disease was established. Mice were weighed daily. On Day 15 animals were terminated by cervical dislocation, the colon length was measured, and colon content was scored. Tissues were collected into 10% neutral buffered formalin and processed routinely for histopathology.
# Clinical Parameters and Gross Pathology: Only animals that survived the duration of the study were included in the analysis of body weight change, terminal colon lengths, and colon content scores. At necropsy, the colon length was measured and assessed for evidence of stool consistency changes. Colon content was scored at necropsy according to the following criteria: 0=Normal (firm, well formed stool); 1=Semi-solid stool; 2=Semi-solid to fluid stool; and 3=Semi-solid with definite evidence of blood, bloody fluid or no content.
# Histopathology: At necropsy, the colon was harvested and divided into 2 approximately equal segments, proximal and distal, to assess regional changes induced in this model. Distal ends were marked to maintain orientation. These colon segments were collected, preserved in 10% neutral buffered formalin, and routinely processed for histopathologic evaluation. During processing for histology, the proximal and distal colon segments were each trimmed to obtain 4 equally spaced segments, and hematoxylin and eosin (H&E) stained slides were prepared for each. Both proximal and distal tissues were examined as these tissues are affected to different degrees of severity in this model (more severe and less variable symptoms predominate in the distal colon).
# For each colon section, submucosal edema was quantified by measuring the distance (mm) from the muscularis mucosa to the internal border of the outer muscle layer. The extent of inflammation (foamy macrophages, lymphocytes and polymorphonuclear cell infiltrate) was assigned severity scores according to the following ranking: 0=Normal; 1=Minimal; 2=Mild; 3=Moderate; 4=Marked; and 5=Severe.
# The parameters reflecting epithelial cell loss/damage were scored individually using a percent area involved scoring method. Parameters that were scored using the percent involvement scale included colon glandular loss and colon erosion. • 0=None • 1=1-10% of the mucosa affected • 2=11-25% of the mucosa affected • 3=26-50% of the mucosa affected • 4=51-75% of the mucosa affected • 5=76-100% of the mucosa affected
# Mucosal epithelial hyperplasia (basophilia, mitotic figures, multilayered on basement membranes, absence of goblet cells) was scored 0-5 based on the following criteria • 0=Normal • 1=Minimal-small foci generally adjacent to the inflammatory changes • 2=Mild-11-25% of mucosa affected • 3=Moderate-26-50% of mucosa affected • 4=Marked-[…] of mucosa affected • 5=Severe-51-100% of mucosa affected plus papillary proliferation into lumen
# Mucosal thickness (an indicator of proliferative changes or edematous inflammatory mucosal expansion) was measured by placing an ocular micrometer at the base of the glands and the overlying surface epithelium in a non-tangential area of section representative of the thickest areas of mucosa.
# The scores for proximal tissues and distal colon were averaged to determine a score for the entire colon for each parameter evaluated. […]
# [3] = system: NIH 3T3 murine embryonic fibroblast cells; assay: BrdU incorporation bioassay of RP-HPLC peak fractions; assay type: cell-based, mouse; settings: BrdU incorporation
# Method: The biological activity of CG53135-05 related species collected from the 4 peaks identified by LC and MS was measured by treatment of serum-starved cultured NIH 3T3 murine embryonic fibroblast cells with various doses of the isolated CG53135-05 related species and measurement of incorporation of bromodeoxyuridine (BrdU) during DNA synthesis. For this assay, cells were cultured in Dulbecco's modified Eagle's medium supplemented with 10% fetal bovine serum. Cells were grown in 96-well plates to confluence at 37° C. in 10% CO2/air and then starved in Dulbecco's modified Eagle's medium for 24-72 hours. CG53135-05-related species were added and incubated for 18 hours at 37° C. in 10% CO2/air. BrdU ([…]) was added and incubated with the cells for 2 hours at 37° C. in 10% CO2/air. Incorporation of BrdU was measured by enzyme-linked immunosorbent assay according to the manufacturer's specifications (Roche Molecular Biochemicals, Indianapolis, Ind.).
# Peak 4 was not included in this assay since insufficient material was collected (Peak 4 is less than 3% of the total peak area for CG53135-05).
# [4] = system: chronic DSS-induced ulcerative colitis in female Swiss Webster mice; assay: Chronic DSS colitis, every other day dosing (N-405); assay type: in vivo, mouse; settings: 3.33 mg/kg (UV) IP on Days 6, 8, 10, 12, 14 (q2d)
# [5] = 3.33 mg/kg (UV), non-significant
substance,measurement,setting,value
"CG53135-05: Codon optimized, full length FGF-20, untagged; SEQ ID NOs 8 and 2",proliferation of mesenchymal and epithelial cells,[1],induce proliferation
same,proliferation of endothelial cells,endothelial cells,not
same,reduction in weight loss,[2]; 0.33 mg/kg (UV) IP once daily Days 6-14,19%
same,reduction in weight loss,[2]; 1.67 mg/kg (UV) IP once daily Days 6-14,35%
same,"improvement in ""on"" inflammation",[2]; 3.33 mg/kg (UV),35%
same,improvement in distal gland loss,[2]; 3.33 mg/kg (UV),38%
same,improvement in distal summed histopathologic scores,[2]; 3.33 mg/kg (UV),38%
same,improvement in total gland loss,[2]; 3.33 mg/kg (UV),37%
same,improvement in total inflammation,[2]; 3.33 mg/kg (UV),34%
same,improvement in total summed histopathologic scores,[2]; 3.33 mg/kg (UV),37%
same,reduction in weight loss,[2]; 3.33 mg/kg (UV) IP once daily Days 6-14,67%
same,improvement in the hyperplasia score,[2]; [5],31%
same,inhibition of the total mucosal thickness,[2]; [5],39%
same,"colon length, inhibition of decrease","[2]; 3.33 mg/kg (UV), statistically significant",29%
same,improvement of colon scores,[2]; 1.67 or 3.33 mg/kg (UV),21-29%
same,"inhibition of proximal, distal and total colon erosion","[2]; mid and high dose groups, non-significant",46-62%
same,induction of DNA synthesis / activity in proliferation assays,[3],dose-dependent manner
same,severity of chronic DSS-induced ulcerative colitis,[4],significantly reduced the severity
